Reference: patent US12558428B2, “Heterobifunctional compounds and their use in treating disease” (Halda Therapeutics OpCo, Inc., priority 2024, dated 2026)

Legend:
CDK1 = target: T1, CDK1 (Homo sapiens, UniProt P06493); assay: Binding affinity to CDK1 (KdELECT assay)
T1 construct: made in house; host or cells: T7 phage in E. coli BL21-derived host, or HEK-293 cells
Procedure: Exemplary compounds were tested for ability to bind to CDK1.
Compounds were tested using a KdELECT assay. Kinase-tagged T7 phage strains were prepared in an E. coli host derived from the BL21 strain. E. coli were grown to log-phase and infected with T7 phage and incubated with shaking at 32° C. until lysis. The lysates were centrifuged and filtered to remove cell debris. The remaining kinases were produced in HEK-293 cells and subsequently tagged with DNA for qPCR detection. Streptavidin-coated magnetic beads were treated with biotinylated small molecule ligands for 30 minutes at room temperature to generate affinity resins for kinase assays. The liganded beads were blocked with excess biotin and washed with blocking buffer (SeaBlock (Pierce), 1% BSA, 0.05% Tween 20, 1 mM DTT) to remove unbound ligand and to reduce non-specific binding. Binding reactions were assembled by combining kinases, liganded affinity beads, and test compounds in 1× binding buffer (20% SeaBlock, 0.17×PBS, 0.05% Tween 20, 6 mM DTT). Test compounds were prepared as 11 IX stocks in 100% DMSO. Kd values were determined using an 11-point 3-fold compound dilution series with three DMSO control points. All compounds for Kd measurements are distributed by acoustic transfer (non-contact dispensing) in 100% DMSO. […] The kinase concentration in the eluates was measured by qPCR.

[1] = system: MCF7 cells (ECACC #86012803); assay: Cellular growth inhibition assay, MCF7 cells purchased from ECACC; type: cell-based; details: Homo sapiens, 144 h; MCF7 cells purchased from ECACC (#86012803); six days treatment; CellTiter-Glo 2.0 viability
Procedure: Exemplary compounds were tested for the ability to inhibit the proliferation of MCF7 cells.
MCF7 cells (ATCC #HTB-22 or ECACC #86012803) were cultured in RPMI 1640 medium supplemented with 10% heat-inactivated fetal bovine serum, 1% pen-strep, and 0.2 U/ml insulin. Cells were seeded in 25 μL of RPMI 1640 medium supplemented with 10% heat-inactivated fetal bovine serum, 1% pen-strep, 0.2 U/ml insulin in poly-D-lysine treated, black clear-bottom 384-well plates at 225 cells/well for MCF7 cells purchased from ECACC or 1,500 cells/well for MCF7 cells purchased from ATCC. Following seeding, plates were spun at 300×g for 30 seconds and cultured at 37° C. with 5% CO2 in a humidified tissue culture incubator.
At 24 hours after seeding, compounds were titrated in 100% DMSO and diluted in RPMI 1640 medium supplemented with 10% heat-inactivate fetal bovine serum, 1% pen-strep, and 0.2 U/ml insulin. A 25 μL aliquot of the compound/media mixture was added to cells, bringing the total volume in each well to 50 μL. An equal volume of DMSO without compound was used as a negative control. After treatment, plates were spun at 300×g for 30 seconds, then cultured at 37° C. with 5% CO2 for six days in a humidified tissue culture incubator.
On Day 6 of treatment, cell viability was quantified with CellTiter-Glo 2.0 reagent (Promega). Plates were equilibrated to room temperature for 30 minutes, then 25 μL of CellTiter-Glo 2.0 reagent was added to cells, bringing the total volume in each well to 75 μL. After reagent was added, plates were mixed on a shaker for two minutes at 500 rpm and then incubated at room temperature for 10 minutes. Following incubation, plates were spun at 3,000×g for 30 seconds, sealed with an optical adhesive cover, and luminescence readings were measured with an EnVision Plate Reader.
Data was normalized to 0 luminescence for baseline. A four-parameter, non-linear regression curve fit was applied to dose-response data in GraphPad Prism data analysis software to determine the half maximal growth inhibitory concentration (GI50) for each compound.

[2] = system: T-Rex 293 cells having increased expression of estrogen receptor alpha protein; assay: Cellular growth inhibition assay, T-Rex 293 cells, (+) doxycycline; type: cell-based; details: T-REx-293, 72 h, Table 7-B; T-Rex 293 cells with doxycycline (increased ERα expression); 72 hours; CellTiter-Glo; read-out: (+) Dox GI50
Summary of the method: (§1)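 Viability read-out was CellTiter-Glo 2.0 luminescence after 72 h compound exposure, normalized to zero luminescence and fitted by four-parameter regression to give GI50. Cells were an ERα-inducible T-Rex 293 clone cultured with or without 3 ng/mL doxycycline in charcoal-stripped, phenol red-free medium.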

[3] = system: T-Rex 293 cells lacking increased expression of estrogen receptor alpha protein; assay: Cellular growth inhibition assay, T-Rex 293 cells, (−) doxycycline; type: cell-based; details: T-REx-293, 72 h, Table 7-B; T-Rex 293 cells without doxycycline (lacking increased ERα expression); 72 hours; CellTiter-Glo; read-out: (−) Dox GI50
Summary of the method: as §1

T1 sequence (P06493 whole entry): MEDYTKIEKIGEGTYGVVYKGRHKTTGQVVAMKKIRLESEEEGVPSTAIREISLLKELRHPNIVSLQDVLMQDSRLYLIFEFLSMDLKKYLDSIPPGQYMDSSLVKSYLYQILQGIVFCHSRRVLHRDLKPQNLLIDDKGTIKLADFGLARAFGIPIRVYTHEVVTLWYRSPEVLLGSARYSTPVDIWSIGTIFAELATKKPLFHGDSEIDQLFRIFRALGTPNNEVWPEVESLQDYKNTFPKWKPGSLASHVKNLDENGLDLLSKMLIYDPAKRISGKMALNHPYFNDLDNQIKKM

Row | SMILES | Kd (CDK1) | GI50 [1] | GI50 [2] | GI50 [3]
1 | CCN(CCOCCOCCNS(=O)(=O)c1ccc(Nc2ncc(Br)c(Nc3cccc(F)c3C(N)=O)n2)cc1)CCOc1ccc(C(=O)c2c(-c3ccc(O)cc3)sc3cc(O)ccc23)cc1 [I-40] | 0.05 to 0.5 µM |  |  | 
2 | CCN(CCOCCOCCOCCOCCOCCOCCNS(=O)(=O)c1ccc(Nc2ncc(Br)c(Nc3cccc(F)c3C(N)=O)n2)cc1)CCOc1ccc(C(=O)c2c(-c3ccc(O)cc3)sc3cc(O)ccc23)cc1 [I-42] | 0.05 to 0.5 µM |  |  | 
3 | COc1cc(N2CCC(O)(CN3CCC(c4cc(F)c([C@H]5c6ccc(O)cc6CC[C@H]5c5ccc(F)cc5)c(F)c4)CC3)CC2)ccc1C1=N[C@@H](C)c2nnc(C)n2-c2sc(C)c(C)c21 [III-359] |  | 0.05 to 0.5 µM | 0.05 to 0.5 µM | 0.5 to 2.5 µM
4 | COc1cc(N2CCC(O)(CN3CCN(c4cc(F)c([C@H]5c6ccc(O)cc6CC[C@H]5c5ccccc5)cc4F)CC3)CC2)ccc1C1=N[C@@H](C)c2nnc(C)n2-c2sc(C)c(C)c21 [III-357] |  | 0.05 to 0.5 µM | 0.05 to 0.5 µM | 0.5 to 2.5 µM
5 | COc1cc(N2CCN(CC3(O)CCN(c4ccc(C5=N[C@@H](C)c6nnc(C)n6-c6sc(C)c(C)c65)cc4)CC3)CC2)ccc1[C@@H]1c2ccc(O)cc2CC[C@@H]1c1ccc(C(F)(F)F)cc1 [III-349] |  | < 0.05 µM | < 0.05 µM | 0.5 to 2.5 µM

Further lines, with some results ahead:

Row | Kd (CDK1) | GI50 [1] | SMILES | GI50 [2] | GI50 [3]
6 |  | < 0.05 µM | Cc1sc2c(c1C)C(c1ccc(N3CC(CN4CCN(CC5CN(c6cc(F)c(C7=C(c8ccccc8)CCCc8cc(C(=O)O)ccc87)cc6F)C5)CC4)C3)cc1)=N[C@@H](C)c1nnc(C)n1-2 [IV-70] | < 0.05 µM | 0.5 to 2.5 µM
7 |  | < 0.05 µM | Cc1sc2c(c1C)C(c1ccc(N3CCC(O)(CN4CCN(c5cc(F)c(C6=C(c7ccccc7)CCCc7cc(C(=O)O)ccc76)c(F)c5)CC4)CC3)cc1)=N[C@@H](C)c1nnc(C)n1-2 [IV-69] | < 0.05 µM | 0.5 to 2.5 µM
8 |  | < 0.05 µM | Cc1sc2c(c1C)C(c1ccc(N3CCC(O)(CN4CCN(c5cc(F)c(C6=C(c7ccccc7)CCCc7cc(C(=O)O)ccc76)cc5F)CC4)CC3)cc1)=N[C@@H](C)c1nnc(C)n1-2 [IV-67] | < 0.05 µM | 0.5 to 2.5 µM
9 |  | < 0.05 µM | Cc1sc2c(c1C)C(c1ccc(N3CC4(CC(CN5CCN(c6cc(F)c(C7=C(c8ccccc8F)CCCc8cc(C(=O)O)ccc87)cc6F)CC5)C4)C3)cc1)=N[C@@H](C)c1nnc(C)n1-2 [IV-72] | < 0.05 µM | 0.5 to 2.5 µM
